The subject of one data set is hCMEC/D3 cells. In words: Transendothelial electrical resistance (TEER) of D3 cells after lithium treatment. It counts as cell-based, human. The note with it: 10 mM lithium chloride in medium; unpaired t-test, P < 0.0004. On the procedure: (§1) Cultures of human brain endothelial hCMEC/D3 cell line (≤passage number 35) were grown in MCDB 131 medium (Pan Biotech) supplemented with 5% FBS, GlutaMAX (100×, LifeTechnologies, Carlsbad, CA, USA), lipid supplement (100×, Life Technologies, Carlsbad, CA, USA), 10 μg/ml ascorbic acid, 550 nM hydrocortisone, 100 μg/ml heparin, 1 ng/ml basic fibroblast growth factor (bFGF, Roche, USA), 2.5 μg/ml insulin, 2.5 μg/ml transferrin, 2.5 ng/ml sodium selenite and 50 μg/ml gentamicin (Weksler et al., [2005]). For differentiation of this cell line (D3L group), the medium was supplemented with 10 mM lithium chloride (LiCl) at the first change of medium (Paolinelli et al., [2013]). For the three brain endothelial cell lines, we used culture media with very similar or identical composition to those that were originally described for their growth and maintenance.
Transendothelial electrical resistance (TEER), reflecting the permeability of TJ for sodium ions, was measured by an EVOM voltohmmeter (World Precision Instruments, Sarasota, FL, USA) combined with STX-2 electrodes. Recorded resistance was expressed to the surface area of the filters (Ω × cm^2, Transwell inserts, […] membrane, 0.4 μm pore size, Corning Costar, USA). TEER of cell-free inserts (110 Ω × cm^2) was subtracted from the measured data.

A short description of data set [1]: Permeability across primary rat brain endothelial cell-based triple co-culture BBB model (EPA).
Data set [2] can be described thus: Permeability across vinblastine-selected VB-Caco-2 cell layers. The note with it: human. A general note: Caco-2 monolayers are a common model of the intestinal barrier.
Data set [3] can be described thus: in vitro. The note with it: rat.
Data set [4] in a line: in vitro. The note with it: human, Caco-2.
A short description of data set [5]: Permeability across MDCK-MDR1 cell layers. It counts as in vitro ADME, canine. The note with it: dog, fluorescein 10 μg/ml, mean ± SD.
A short description of data set [6]: Permeability across Caco-2 epithelial cell layers. In kind it is in vitro ADME. The note with it: human, CaCo2, fluorescein 10 μg/ml, mean ± SD.
A short description of data set [7]: Permeability across MDCK cell layers. In kind it is in vitro ADME, canine. The note with it: dog, fluorescein 10 μg/ml, mean ± SD.
Data set [8] is described as follows: Permeability across hCMEC/D3 (D3) brain endothelial cell line. It counts as in vitro ADME. The note with it: human, fluorescein 10 μg/ml, mean ± SD. How it is done:
as §1

A short description of data set [9]: Permeability across lithium-treated hCMEC/D3 (D3L) cells. The note with it: human, D3L (10 mM LiCl), fluorescein 10 μg/ml, mean ± SD. In kind it is in vitro ADME. How it is done: as §1
A short description of data set [10]: Permeability across RBE4 brain endothelial cell line. In kind it is in vitro ADME. The note with it: rat, fluorescein 10 μg/ml, mean ± SD. On the procedure: RBE4 rat brain endothelial cell line (provided by Dr. Pierre-Olivier Couraud, Institut Cochin, Paris, France) was grown in DMEM/ HAM’s F-12, supplemented with 10% FBS, 1 ng/ml bFGF and 50 μg/ml gentamicin.

Data set [11] is described as follows: Permeability across GP8 brain endothelial cell line. It counts as in vitro ADME. The note with it: rat, fluorescein 10 μg/ml, mean ± SD. On the procedure: GP8 rat brain endothelial cell line (provided by Dr. John Greenwood, University College London, UK) was cultured in DMEM/ HAM’s F-12, 15% PDS, 100 μg/ml heparin, 1 ng/ml bFGF and 50 μg/ml gentamicin.

The record followed here is publication PMC5972182, “Comparison of a Rat Primary Cell-Based Blood-Brain Barrier Model With Epithelial and Brain Endothelial Cell Lines: Gene Expression and Drug Transport” (Frontiers in Molecular Neuroscience, 2018).

The Papp A→B is how fast a substance crosses the layer from the apical side. Lower therefore signals slow passage. The term Papp denotes a coefficient for how fast a substance crosses the barrier. A lower Papp goes with poor permeation. The term efflux ratio denotes a quotient of directional permeabilities that is used to spot active efflux.

A value given as a limit tells only on which side of the number the result lay.

For `[Cl-].[Li+]` [lithium, lithium chloride], the “Effect on TEER of D3 cells” value in the data set with hCMEC/D3 cells is “significantly elevated”.

Take `CCCC(CCC)C(=O)O` [Valproic acid, valproic acid]: the apparent permeability from apical to basolateral (Papp A→B) in [1] (Wistar) worked out at 39.4 ×10⁻⁶ cm/s; in data set [2], 42.2 ×10⁻⁶ cm/s.

Turning to `CC(C)c1nc(N(C)S(C)(=O)=O)nc(-c2ccc(F)cc2)c1/C=C/[C@@H](O)C[C@@H](O)CC(=O)O` [Rosuvastatin, rosuvastatin], the Papp A→B stood at 11.3 ×10⁻⁶ cm/s in data set [1] (Wistar) and 0.38 ×10⁻⁶ cm/s in [2].

In “in vitro [3]” (Wistar), `Nc1c2c(nc3ccccc13)CCCC2` [tacrine] showed a Papp at 30 min, 0.5 µM of 102 ± 27 ×10⁻⁶ cm/s.

As to `CO[C@H]1[C@H](O)[C@@H](CO)OC(O)[C@@H]1O` (stereo partly drawn) [Glucopyranose, 3-O-methyl-D-glucopyranose], the Papp A→B was less than 65.7 ×10⁻⁶ cm/s in data set [1] (Wistar) and 17.2 ×10⁻⁶ cm/s in data set [2].

In the case of `N[C@@H](Cc1ccc(O)c(O)c1)C(=O)O` [L-DOPA, 3,4-dihydroxy-L-phenylalanine], the efflux ratio at 10 μM in [1] was determined as 0.4. Also, in data set [1] (Wistar), the apparent permeability from apical to basolateral (Papp A→B) worked out at 73 ± 4 ×10⁻⁶ cm/s.

For the compound `NCC(CC(=O)O)c1ccc(Cl)cc1` (centres unmarked) [Baclofen, baclofen], the apical-to-basolateral permeability (Papp A→B) in data set [1] (Wistar) was 16.3 ×10⁻⁶ cm/s; in data set [2], 0.31 ×10⁻⁶ cm/s.

With `O=C(O)c1ccccc1O` [Salicylic acid, salicylic acid], the apical-to-basolateral permeability (Papp A→B) in data set [1] (Wistar) was 4.78 ×10⁻⁶ cm/s; in data set [2], 7.6 ×10⁻⁶ cm/s.

For the compound `NCC1(CC(=O)O)CCCCC1` [Gabapentin, gabapentin], in the data set with VB-Caco-2 cells, the “Papp A-B” value was “below the detection limit”. Further, the results for the Papp A→B in “in vitro [3]” (Wistar) and in the data set “in vitro [4]” were 2.98 ×10⁻⁶ cm/s and less than 0.88 ×10⁻⁶ cm/s, respectively. Further, the values for the efflux ratio in “in vitro [3]” and in “in vitro [4]” were 0.92 and greater than 0.27, respectively.

Consider `CC[C@H](C)C(=O)O[C@H]1C[C@H](O)C=C2C=C[C@H](C)[C@H](CC[C@@H](O)C[C@@H](O)CC(=O)O)[C@H]21` [Pravastatin, pravastatin], for which the results for the Papp A→B in data set [1] (Wistar) and in data set [2] were 7.61 ×10⁻⁶ cm/s and 0.19 ×10⁻⁶ cm/s, respectively.

For the compound `CCCN(CCC)S(=O)(=O)c1ccc(C(=O)O)cc1` [Probenecid, probenecid], the Papp A→B in [1] (Wistar) is 19 ×10⁻⁶ cm/s; in [2] it was 33.4 ×10⁻⁶ cm/s.

Regarding `O=C1OC2(c3ccc(O)cc3Oc3cc(O)ccc32)c2ccccc21` [Fluorescein, fluorescein], the Papp at 30 min, 10 µg/ml in [5] stood at 2.7 ± 0.31 ×10⁻⁶ cm/s; in data set [6], 1.5 ± 0.28 ×10⁻⁶ cm/s; in data set [1] (Wistar) it was 2.1 ± 0.25 ×10⁻⁶ cm/s; in data set [7], 2.8 ± 0.23 ×10⁻⁶ cm/s; in data set [2] it was 0.3 ± 0.06 ×10⁻⁶ cm/s; in data set [8], 22.2 ± 3.71 ×10⁻⁶ cm/s. The Papp at 30 min, 10 µg/ml in data set [9] stood at 19.3 ± 1.22 ×10⁻⁶ cm/s; in data set [10], 27.4 ± 1.63 ×10⁻⁶ cm/s; in data set [11], 39.8 ± 3.51 ×10⁻⁶ cm/s.
